Data on one compound can be found in patent US20260115177A1, “MEDICINAL PRODUCTS AND METHODS FOR THE ALLEVIATION OF CANCER IMMUNOTHERA-PY-ASSOCIATED CYTOKINE RELEASE SYNDROME” (POOLBEG PHARMA (UK) LIMITED, priority 2023, published 2026).

What all share (type): cell-based, human
Experiment [1] relates to CAR T cells. Description: CAR T cell proliferation in CAR T cell:cancer cell co-culture (Cell Trace Violet, flow cytometry). The following applies: CAR T:tumour cell co-culture 1:1; concentrations of Table 2. The protocol: CAR T cell proliferation is confirmed by Cell Trace™ Violet staining of CAR T cells (staining agent having been added prior to addition of the T cells to the co-cultures with tumour cells). Staining may be observed, following co-culture, via flow cytometry.
(§1) UR-13870, Ralimetinib or Acumapimod are each added to a culture of CD19+ cancer cells (using a micropipette to transfer the correct volume to achieve the desired final concentration in Table 2).
(§2) CAR T cells are then added to the same culture 5-10 minutes later. In brief, CAR T cell concentrations per ml are determined and used to aliquot the desired number of CAR T cells into the culture to achieve the described 1:1 CAR T to cancer cell ratio.
(§3) The co-culture containing CAR T cells and tumour cells is swirled gently to ensure homogenous dispersion of cells throughout the vessel. The resultant co-culture is incubated for 24 to 96 hours in a closed incubator at 37° C. with 5% CO2 and a suitably humid atmosphere.

Experiment [2] has as its system HUVEC endothelial cells. The experiment can be described thus: IL-6 and IL-8 ELISA of HUVEC endothelial cells treated with sCAR. The following applies: sCAR stimulation, 24 hours; concentrations of Table 2. As for the experimental part: In like manner and also in Example 3 below, sCAR (or smCAR) is added to endothelial (HUVEC) cells, available from the American Type Culture Collection, and using an equivalent protocol to the treatment of THP-1 cells (but with individually optimised conditions, such as the concentration of sCAR used), following which IL-6 release and IL-8 release are observed. Pro-inflammatory cytokines IL-6 and IL-8 are measured using an enzyme-linked immunosorbent assay (ELISA) and IL-6, ICAM1 and VCAM1 are measured by quantitative PCR (QPCR, for which a kit is suitably obtainable from Thermo Fisher Scientific of Kingfisher Dr, Swindon SN3 5BZ, UK).
sCAR (or smCAR), produced as described in Example 1 above, is added to a monoculture of HUVEC endothelial cells in the presence of UR-13870, Ralimetinib or Acumapimod at each of the concentrations shown in Table 2 above, at 37° C., 5% CO2 and a suitably humid environment for 24 hours.
Supernatant levels of IL-6 and IL-8 from the HUVEC endothelial cell monoculture with sCAR (or smCAR) are determined by ELISA.

For experiment [3], the system named is CAR T cells. The experiment can be described thus: T cell exhaustion markers TIM3 and LAG3 on CAR T cells in co-culture (flow cytometry). To be noted: CAR T:tumour cell co-culture, concentrations of Table 2. The protocol:
as §1, §2, §3
Both T cell surface markers T cell immunoglobulin and mucin domain-containing protein 3 (TIM3/CD366) and Lymphocyte Activation Gene 3 (LAG3/CD223) are associated with T cell exhaustion and disease progression during immunotherapy treatment. Advantageously, all of UR-13870, Ralimetinib and Acumapimod reduce both the number of TIM3+ CAR T cells, and the number of LAG3+ CAR T cells. […] For LAG3+, the results for Ralimetinib at a 5 μM concentration appear to have been affected by experimental failure, and these may be disregarded accordingly.
For orientation: Flow cytometry measures light scatter and fluorescence of single cells or particles in a stream.

Experiment [4] has as its system HUVEC endothelial cells. The experiment can be described thus: QPCR of ICAM1 in HUVEC cells treated with sCART-mono supernatant. To be noted: 24 hours. As for the experimental part: With reference to FIG. 13 of the accompanying drawings, a co-culture (100) is established using a standard cell culture transwell dish, including a first compartment (101), containing CAR T cells and cancer cells (at a 1:1 ratio), which is separated from a second compartment (102), containing monocytes, by a semi-permeable membrane (103) composed of tissue-culture treated polyethylene terephthalate with a 0.4 μm pore size.
Each of UR-13870, Acumapimod and Ralimetinib are administered to the co-culture following a procedure analogous to that described in Example 2 above (at the concentrations as shown in Table 2 above).
The co-culture is incubated at 37° C., 5% CO2 and a suitably humid environment for 24 hours. On completion, the transwell insert is removed and supernatant is isolated. Cells and debris are removed from the supernatant by exposing the container to a centripetal force of 400 G and gently pipetting the supernatant into a new container without disturbing the cell pellet at the bottom of the previous container.
Prior to adding the p38 inhibitors and sCART-mono, endothelial cells are incubated overnight at 37° C. and 5% CO2 in a suitably humid environment to allow the cells to adhere fully to the tissue culture dish.
Reduced endothelial cell activation is evidenced by reduced ICAM1 expression in response to treatment with UR-13870, Acumapimod and Ralimetinib.

Take `OCCCn1cc2c(-c3ccc(F)cc3)c(-c3ccncc3)c(-c3ccc(F)cc3)nc2n1` [UR-13870, 6-bis(4-fluorophenyl)-5-(4-pyridinyl)-2Hpyrazolo[3,4-b]pyridine-2-propanol]: the “CAR T cell proliferation (Cell Trace Violet staining)” value with CAR T cells [1] is given as “maintain CAR T cell proliferation”. Besides, in the experiment on HUVEC endothelial cells [2], the “IL-6 secretion by HUVEC cells” value was “significantly reduce” and the “IL-8 supernatant level, HUVEC cells” value was “reduced”. In addition, in the experiment with CAR T cells [3], the “number of TIM3+ CAR T cells” value is on record as “reduce”. Also, the “number of LAG3+ CAR T cells” value with CAR T cells [3] (Ralimetinib 5 μM results to be disregarded) is recorded as “reduce”. The “ICAM1 expression (endothelial cell activation)” value in the experiment with HUVEC endothelial cells [4] is listed as “reduced”.
